“And” between values parts separate entries of the source, which are not always exact repeats. Equal values may be shown once. ± gives the expanded uncertainty stated by the source.
Assay: xn = mol fraction of the nth substance listed
Conditions: Fluid (supercritical or subcritical phases), Parallel plate method

CC [ethane] + O=C=O
thermal conductivity (296.64 K, Amount density=7450 mol/m3, x2 = 0.25): 0.186 ± 0.004 W/m/K | thermal conductivity (296.65 K, Amount density=7450 mol/m3, x2 = 0.25): 0.183 ± 0.0046 W/m/K | thermal conductivity (296.66 K, Amount density=6830 mol/m3, x2 = 0.25): 0.138 ± 0.0071 W/m/K | thermal conductivity (296.69 K, Amount density=7450 mol/m3, x2 = 0.25): 0.186 ± 0.007 W/m/K | thermal conductivity (296.7 K, Amount density=6870 mol/m3, x2 = 0.25): 0.177 ± 0.0062 W/m/K and 0.188 ± 0.0066 W/m/K | thermal conductivity (296.7 K, Amount density=7450 mol/m3, x2 = 0.25): 0.154 ± 0.0055 W/m/K | thermal conductivity (296.71 K, Amount density=6870 mol/m3, x2 = 0.25): 0.214 ± 0.011 W/m/K | thermal conductivity (296.71 K, Amount density=7450 mol/m3, x2 = 0.25): 0.175 ± 0.0048 W/m/K | thermal conductivity (296.72 K, Amount density=7450 mol/m3, x2 = 0.25): 0.164 ± 0.0049 W/m/K and 0.166 ± 0.0049 W/m/K | thermal conductivity (296.73 K, Amount density=6870 mol/m3, x2 = 0.25): 0.195 ± 0.0069 W/m/K | thermal conductivity (296.74 K, Amount density=6830 mol/m3, x2 = 0.25): 0.199 ± 0.0086 W/m/K | thermal conductivity (296.74 K, Amount density=7450 mol/m3, x2 = 0.25): 0.145 ± 0.006 W/m/K | thermal conductivity (296.75 K, Amount density=6870 mol/m3, x2 = 0.25): 0.204 ± 0.0065 W/m/K | thermal conductivity (296.75 K, Amount density=7450 mol/m3, x2 = 0.25): 0.157 ± 0.0052 W/m/K | thermal conductivity (296.76 K, Amount density=6870 mol/m3, x2 = 0.25): 0.189 ± 0.0063 W/m/K | thermal conductivity (296.77 K, Amount density=6870 mol/m3, x2 = 0.25): 0.195 ± 0.0096 W/m/K | thermal conductivity (296.79 K, Amount density=6830 mol/m3, x2 = 0.25): 0.218 ± 0.0052 W/m/K | thermal conductivity (296.8 K, Amount density=6870 mol/m3, x2 = 0.25): 0.168 ± 0.014 W/m/K | thermal conductivity (296.8 K, Amount density=8450 mol/m3, x2 = 0.25): 0.0921 ± 0.0024 W/m/K | thermal conductivity (296.82 K, Amount density=6710 mol/m3, x2 = 0.26): 0.118 ± 0.013 W/m/K | thermal conductivity (296.83 K, Amount density=6870 mol/m3, x2 = 0.25): 0.157 ± 0.009 W/m/K | thermal conductivity (296.84 K, Amount density=6710 mol/m3, x2 = 0.26): 0.111 ± 0.0037 W/m/K | thermal conductivity (296.84 K, Amount density=6830 mol/m3, x2 = 0.25): 0.142 ± 0.012 W/m/K | thermal conductivity (296.85 K, Amount density=5680 mol/m3, x2 = 0.25): 0.0729 ± 0.0021 W/m/K | thermal conductivity (296.86 K, Amount density=2940 mol/m3, x2 = 0.25): 0.0306 ± 0.0015 W/m/K | thermal conductivity (296.87 K, Amount density=877 mol/m3, x2 = 0.26): 0.0217 ± 0.0013 W/m/K | thermal conductivity (296.87 K, Amount density=6710 mol/m3, x2 = 0.26): 0.11 ± 0.0037 W/m/K | thermal conductivity (296.88 K, Amount density=446 mol/m3, x2 = 0.25): 0.021 ± 0.0013 W/m/K | thermal conductivity (296.88 K, Amount density=7450 mol/m3, x2 = 0.25): 0.145 ± 0.0039 W/m/K | thermal conductivity (296.88 K, Amount density=7490 mol/m3, x2 = 0.25): 0.139 ± 0.0033 W/m/K | thermal conductivity (297.16 K, Amount density=3090 mol/m3, x2 = 0.26): 0.0313 ± 0.0015 W/m/K | thermal conductivity (297.44 K, Amount density=8450 mol/m3, x2 = 0.25): 0.0821 ± 0.0022 W/m/K | thermal conductivity (297.46 K, Amount density=5680 mol/m3, x2 = 0.25): 0.0677 ± 0.002 W/m/K | thermal conductivity (297.46 K, Amount density=6830 mol/m3, x2 = 0.25): 0.11 ± 0.0027 W/m/K and 0.102 ± 0.0026 W/m/K | thermal conductivity (297.47 K, Amount density=2940 mol/m3, x2 = 0.25): 0.0305 ± 0.0015 W/m/K | thermal conductivity (297.47 K, Amount density=6830 mol/m3, x2 = 0.25): 0.102 ± 0.0026 W/m/K | thermal conductivity (297.48 K, Amount density=7490 mol/m3, x2 = 0.25): 0.111 ± 0.0027 W/m/K | thermal conductivity (297.5 K, Amount density=10780 mol/m3, x2 = 0.25): 0.0671 ± 0.002 W/m/K | thermal conductivity (297.52 K, Amount density=446 mol/m3, x2 = 0.25): 0.021 ± 0.0013 W/m/K | thermal conductivity (298.49 K, Amount density=9120 mol/m3, x2 = 0.74): 0.06 ± 0.0019 W/m/K | thermal conductivity (298.69 K, Amount density=6870 mol/m3, x2 = 0.25): 0.169 ± 0.0035 W/m/K | thermal conductivity (298.95 K, Amount density=7450 mol/m3, x2 = 0.25): 0.081 ± 0.003 W/m/K | thermal conductivity (298.99 K, Amount density=5680 mol/m3, x2 = 0.25): 0.0623 ± 0.0019 W/m/K | thermal conductivity (298.99 K, Amount density=6830 mol/m3, x2 = 0.25): 0.0779 ± 0.0068 W/m/K | thermal conductivity (298.99 K, Amount density=7490 mol/m3, x2 = 0.25): 0.0811 ± 0.003 W/m/K | thermal conductivity (298.99 K, Amount density=10780 mol/m3, x2 = 0.25): 0.0684 ± 0.002 W/m/K | thermal conductivity (299 K, Amount density=2940 mol/m3, x2 = 0.25): 0.0305 ± 0.0015 W/m/K | thermal conductivity (299.01 K, Amount density=446 mol/m3, x2 = 0.25): 0.0211 ± 0.0013 W/m/K | thermal conductivity (299.01 K, Amount density=6630 mol/m3, x2 = 0.74): 0.0467 ± 0.0017 W/m/K | thermal conductivity (299.02 K, Amount density=446 mol/m3, x2 = 0.25): 0.0212 ± 0.0013 W/m/K | thermal conductivity (301.91 K, Amount density=7730 mol/m3, x2 = 0.5): 0.0493 ± 0.0017 W/m/K | thermal conductivity (301.93 K, Amount density=6710 mol/m3, x2 = 0.26): 0.0624 ± 0.0019 W/m/K | thermal conductivity (301.95 K, Amount density=7530 mol/m3, x2 = 0.5): 0.0505 ± 0.0018 W/m/K | thermal conductivity (301.96 K, Amount density=6960 mol/m3, x2 = 0.5): 0.0531 ± 0.0018 W/m/K | thermal conductivity (301.98 K, Amount density=435 mol/m3, x2 = 0.5): 0.0203 ± 0.0013 W/m/K | thermal conductivity (302 K, Amount density=6830 mol/m3, x2 = 0.25): 0.0658 ± 0.002 W/m/K | thermal conductivity (302.01 K, Amount density=877 mol/m3, x2 = 0.26): 0.0222 ± 0.0013 W/m/K | thermal conductivity (302.01 K, Amount density=2940 mol/m3, x2 = 0.5): 0.0281 ± 0.0014 W/m/K | thermal conductivity (302.02 K, Amount density=446 mol/m3, x2 = 0.25): 0.0214 ± 0.0013 W/m/K | thermal conductivity (302.02 K, Amount density=5680 mol/m3, x2 = 0.25): 0.056 ± 0.0018 W/m/K | thermal conductivity (302.04 K, Amount density=2940 mol/m3, x2 = 0.25): 0.0307 ± 0.0015 W/m/K | thermal conductivity (302.04 K, Amount density=6830 mol/m3, x2 = 0.25): 0.0658 ± 0.002 W/m/K | thermal conductivity (302.05 K, Amount density=8450 mol/m3, x2 = 0.25): 0.0676 ± 0.002 W/m/K | thermal conductivity (302.06 K, Amount density=7490 mol/m3, x2 = 0.25): 0.0699 ± 0.002 W/m/K | thermal conductivity (302.11 K, Amount density=3090 mol/m3, x2 = 0.26): 0.0311 ± 0.0015 W/m/K | thermal conductivity (302.25 K, Amount density=6630 mol/m3, x2 = 0.74): 0.0436 ± 0.0017 W/m/K | thermal conductivity (302.43 K, Amount density=5650 mol/m3, x2 = 0.5): 0.0436 ± 0.0017 W/m/K | thermal conductivity (307.99 K, Amount density=2940 mol/m3, x2 = 0.5): 0.0279 ± 0.0014 W/m/K | thermal conductivity (308 K, Amount density=7730 mol/m3, x2 = 0.5): 0.0462 ± 0.0017 W/m/K | thermal conductivity (308.01 K, Amount density=6830 mol/m3, x2 = 0.25): 0.0567 ± 0.0019 W/m/K | thermal conductivity (308.02 K, Amount density=6960 mol/m3, x2 = 0.5): 0.0468 ± 0.0017 W/m/K | thermal conductivity (308.02 K, Amount density=7490 mol/m3, x2 = 0.25): 0.0614 ± 0.0019 W/m/K | thermal conductivity (308.03 K, Amount density=7530 mol/m3, x2 = 0.5): 0.0469 ± 0.0017 W/m/K | thermal conductivity (308.06 K, Amount density=5650 mol/m3, x2 = 0.5): 0.041 ± 0.0016 W/m/K | thermal conductivity (308.06 K, Amount density=7450 mol/m3, x2 = 0.25): 0.0646 ± 0.002 W/m/K | thermal conductivity (308.06 K, Amount density=9120 mol/m3, x2 = 0.74): 0.0485 ± 0.0017 W/m/K | thermal conductivity (308.07 K, Amount density=435 mol/m3, x2 = 0.5): 0.0207 ± 0.0013 W/m/K | thermal conductivity (308.07 K, Amount density=446 mol/m3, x2 = 0.25): 0.0219 ± 0.0013 W/m/K | thermal conductivity (308.09 K, Amount density=435 mol/m3, x2 = 0.5): 0.0207 ± 0.0013 W/m/K | thermal conductivity (308.1 K, Amount density=877 mol/m3, x2 = 0.26): 0.0228 ± 0.0013 W/m/K | thermal conductivity (308.12 K, Amount density=10780 mol/m3, x2 = 0.25): 0.0659 ± 0.002 W/m/K | thermal conductivity (308.15 K, Amount density=2940 mol/m3, x2 = 0.25): 0.031 ± 0.0015 W/m/K | thermal conductivity (308.16 K, Amount density=3090 mol/m3, x2 = 0.26): 0.0314 ± 0.0015 W/m/K | thermal conductivity (308.18 K, Amount density=6630 mol/m3, x2 = 0.74): 0.0413 ± 0.0016 W/m/K | thermal conductivity (308.18 K, Amount density=6710 mol/m3, x2 = 0.26): 0.054 ± 0.0018 W/m/K | thermal conductivity (308.23 K, Amount density=8450 mol/m3, x2 = 0.25): 0.0617 ± 0.0019 W/m/K | thermal conductivity (308.7 K, Amount density=5680 mol/m3, x2 = 0.25): 0.0516 ± 0.0018 W/m/K | thermal conductivity (318.04 K, Amount density=9120 mol/m3, x2 = 0.74): 0.0354 ± 0.0015 W/m/K | thermal conductivity (318.11 K, Amount density=435 mol/m3, x2 = 0.5): 0.0218 ± 0.0013 W/m/K | thermal conductivity (318.11 K, Amount density=6630 mol/m3, x2 = 0.74): 0.0382 ± 0.0016 W/m/K | thermal conductivity (318.12 K, Amount density=7530 mol/m3, x2 = 0.5): 0.0445 ± 0.0017 W/m/K | thermal conductivity (318.13 K, Amount density=5650 mol/m3, x2 = 0.5): 0.0411 ± 0.0016 W/m/K | thermal conductivity (318.13 K, Amount density=6960 mol/m3, x2 = 0.5): 0.0425 ± 0.0016 W/m/K | thermal conductivity (318.13 K, Amount density=7490 mol/m3, x2 = 0.25): 0.0559 ± 0.0018 W/m/K | thermal conductivity (318.13 K, Amount density=7730 mol/m3, x2 = 0.5): 0.0403 ± 0.0016 W/m/K | thermal conductivity (318.14 K, Amount density=2940 mol/m3, x2 = 0.5): 0.0293 ± 0.0014 W/m/K | thermal conductivity (318.14 K, Amount density=6830 mol/m3, x2 = 0.25): 0.0532 ± 0.0018 W/m/K | thermal conductivity (318.14 K, Amount density=10780 mol/m3, x2 = 0.25): 0.065 ± 0.002 W/m/K | thermal conductivity (318.15 K, Amount density=446 mol/m3, x2 = 0.25): 0.0232 ± 0.0013 W/m/K | thermal conductivity (318.15 K, Amount density=5650 mol/m3, x2 = 0.5): 0.0398 ± 0.0016 W/m/K | thermal conductivity (318.16 K, Amount density=2940 mol/m3, x2 = 0.25): 0.0316 ± 0.0015 W/m/K | thermal conductivity (318.16 K, Amount density=8450 mol/m3, x2 = 0.25): 0.049 ± 0.0017 W/m/K | thermal conductivity (318.17 K, Amount density=3090 mol/m3, x2 = 0.26): 0.0318 ± 0.0015 W/m/K | thermal conductivity (318.19 K, Amount density=877 mol/m3, x2 = 0.26): 0.0236 ± 0.0014 W/m/K | thermal conductivity (318.21 K, Amount density=6710 mol/m3, x2 = 0.26): 0.0503 ± 0.0018 W/m/K | thermal conductivity (318.27 K, Amount density=5680 mol/m3, x2 = 0.25): 0.0481 ± 0.0017 W/m/K
